The supplement of paper PMC10307832

How the values were obtained:
Assay in all cases: relative viability (nuclei count vs DMSO), 5 days (fraction); higher = more cells survive
KIN001-266 + Lapatinib = compound: CCN1CCC(CC1)N2C=C(N=N2)CNC3=CC4=C(C(=CN=C4C(=C3)Cl)C#N)NC5=CC(=C(C=C5)F)Cl [KIN001-266] + CS(=O)(=O)CCNCc1ccc(-c2ccc3ncnc(Nc4ccc(OCc5cccc(F)c5)c(Cl)c4)c3c2)o1 [Lapatinib] (partner 2 µM)
In short: (§1)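 Dosing by pin tool came one day after lung cancer cell lines were seeded in 1536-well plates, using either one drug or a fixed anchor-drug dose plus five library-drug doses (not always all listed) in √10 steps. After 5 days, nuclei were counted on 4× images. Relative viability is treated-well nuclei count divided by vehicle-well nuclei count, and values are medians of duplicate plates.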

KIN001-266 + Crizotinib = compound: CCN1CCC(CC1)N2C=C(N=N2)CNC3=CC4=C(C(=CN=C4C(=C3)Cl)C#N)NC5=CC(=C(C=C5)F)Cl [KIN001-266] + C[C@@H](Oc1cc(-c2cnn(C3CCNCC3)c2)cnc1N)c1c(Cl)ccc(F)c1Cl [Crizotinib] (partner 1 µM)
In short: as §1

KIN001-266 + Tozasertib = compound: CCN1CCC(CC1)N2C=C(N=N2)CNC3=CC4=C(C(=CN=C4C(=C3)Cl)C#N)NC5=CC(=C(C=C5)F)Cl [KIN001-266] + Cc1cc(Nc2cc(N3CCN(C)CC3)nc(Sc3ccc(NC(=O)C4CC4)cc3)n2)n[nH]1 [Tozasertib] (partner 0.1 µM)
In short: as §1

KIN001-266 + Decitabine = compound: CCN1CCC(CC1)N2C=C(N=N2)CNC3=CC4=C(C(=CN=C4C(=C3)Cl)C#N)NC5=CC(=C(C=C5)F)Cl [KIN001-266] + Nc1ncn([C@H]2C[C@H](O)[C@@H](CO)O2)c(=O)n1 [Decitabine] (partner 2 µM)
In short: as §1

Cell Line	relative viability (KIN001-266 + Lapatinib; first compound 0.08 µM)	relative viability (KIN001-266 + Lapatinib; first compound 0.253 µM)	relative viability (KIN001-266 + Lapatinib; first compound 0.8 µM)	relative viability (KIN001-266 + Lapatinib; first compound 2.53 µM)	relative viability (KIN001-266 + Lapatinib; first compound 8 µM)	relative viability (KIN001-266 + Crizotinib; first compound 0.08 µM)	relative viability (KIN001-266 + Crizotinib; first compound 0.253 µM)	relative viability (KIN001-266 + Crizotinib; first compound 0.8 µM)	relative viability (KIN001-266 + Crizotinib; first compound 2.53 µM)	relative viability (KIN001-266 + Crizotinib; first compound 8 µM)	relative viability (KIN001-266 + Tozasertib; first compound 0.08 µM)	relative viability (KIN001-266 + Tozasertib; first compound 0.253 µM)	relative viability (KIN001-266 + Tozasertib; first compound 0.8 µM)	relative viability (KIN001-266 + Tozasertib; first compound 2.53 µM)	relative viability (KIN001-266 + Tozasertib; first compound 8 µM)	relative viability (KIN001-266 + Decitabine; first compound 0.08 µM)	relative viability (KIN001-266 + Decitabine; first compound 0.253 µM)	relative viability (KIN001-266 + Decitabine; first compound 0.8 µM)	relative viability (KIN001-266 + Decitabine; first compound 2.53 µM)	relative viability (KIN001-266 + Decitabine; first compound 8 µM)
201T	1.05	0.981	0.992	1.07	1.05	1.05	0.997	1.02	1.03	1.03	0.915	0.915	0.915	0.919	0.856	0.848	0.885	0.868	0.78	0.842
A-427	1.07	1.08	1.04	0.921	1.01	0.905	0.701	0.776	0.746	0.636	0.24	0.21	0.178	0.186	0.181	0.616	0.566	0.521	0.508	0.535
ABC-1	1.18	1.08	1.12	1.14	1.1	1.29	1.31	1.26	1.04	0.435	0.156	0.227	0.199	0.166	0.204	1.19	1.18	1.07	1.09	0.855
BEN	0.779	0.764	0.77	0.835	0.953	0.756	0.815	0.948	0.811	1.04	0.479	0.534	0.491	0.484	0.506	0.975	0.696	0.754	0.623	0.752
CAL-12T	0.826	0.706	–	0.679	0.626	0.562	0.565	0.693	0.589	0.686	0.345	0.3	0.291	0.312	0.255	–	–	–	–	–
COR-L23	0.797	0.894	0.998	0.904	0.983	0.751	0.832	0.642	0.561	0.416	0.19	0.182	0.206	0.164	0.151	0.487	0.497	0.466	0.464	0.389
COR-L 105	0.349	0.393	0.34	0.417	0.381	0.817	0.962	0.82	0.969	0.726	0.388	0.322	0.381	0.342	0.296	0.584	0.661	0.641	0.725	0.677
Calu-6	1.09	1.05	1.02	1	0.899	0.768	0.763	0.825	0.81	0.595	–	–	–	–	–	–	–	–	–	–
ChaGo-K-1	–	–	–	–	–	1.09	1.12	–	1.09	0.982	0.245	0.218	0.213	0.207	0.198	0.502	0.517	0.508	0.506	0.38
EBC-1	0.219	0.218	0.209	0.199	0.201	0.183	0.205	0.205	0.203	0.185	–	–	–	–	–	–	–	–	–	–
EKVX	0.284	0.182	0.204	0.202	0.171	0.893	0.933	0.894	0.899	0.894	0.319	0.376	0.374	0.392	0.409	0.364	0.422	0.368	0.364	0.358
EMC-BAC-2	0.906	0.907	0.879	0.917	0.942	0.826	0.797	0.758	0.751	0.794	0.307	0.316	0.292	0.29	0.281	1.04	1.04	0.965	0.984	0.988
EPLC-272H	1.03	0.982	1.05	0.732	0.797	0.939	0.862	0.752	0.943	0.656	0.258	0.377	0.383	0.244	0.208	0.382	0.404	0.338	0.344	0.319
H3255	0.346	0.219	0.283	0.251	0.294	0.883	0.874	0.777	0.811	0.71	0.699	0.601	0.502	0.499	0.512	0.632	0.557	0.587	0.618	0.713
HARA	0.929	0.689	0.842	0.823	0.657	1.07	1.24	0.894	0.967	0.782	0.124	0.13	0.102	0.0995	0.0873	0.416	0.616	0.635	0.57	0.439
